Nine compounds from PubChem BioAssay (NCI) can be followed below.

Each structure is given as a SMILES string.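 Compound exposure: 48 hours, 5 concentrations, 96-well plates. At the GI50, growth is halved. TGI is the concentration that stops growth completely.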 Where only a bound is given, the exact number is not on record here.

Common to all, as to experiment: NCI-60 cell line screen, 48 h
In assay [1] the test system is MDA-MB-231 breast.
In assay [2] the test system is T-47D breast.
Assay [3] has as its system DU-145 prostate.
Assay [4] deals with SF-295 CNS.
Assay [5] has as its system HCT-116 colon.
Assay [6] concerns NCI-H23 lung.
The subject of assay [7] is HS 578T breast.
In assay [8] the test system is OVCAR-5 ovarian.

Consider `c1cc(C2CCCCC2)ccc1-c1cnc2nonc2n1`, for which the GI50 was 1.33 µM in assay [1]; 0.631 µM in assay [2]; 1.35 µM in assay [3]; 1.64 µM in assay [4]; 0.468 µM in assay [5]; 1.37 µM in assay [6]. The GI50 was 1.02 µM in assay [7] and 1.7 µM in assay [8]. Moreover, the TGI in assay [1] was 4.01 µM; in assay [2], 2.78 µM; in assay [3], 3.02 µM; in assay [4], 4.32 µM; in assay [5], 1.93 µM; in assay [6], 4.02 µM. The TGI in assay [7] is more than 58.3 µM; in assay [8] it was 4.04 µM.

In the case of `Cc1nc2sc(C(=O)Nc3ccccc3)c(N)c2cc1C(O)c1ccccc1` (centres undefined), the GI50 is 0.411 µM in assay [1]; 1.27 µM in assay [2]; 0.362 µM in assay [3]; 0.252 µM in assay [4]; 0.255 µM in assay [5]; 0.664 µM in assay [6]. In addition, the GI50 is 0.325 µM in assay [7] and 0.565 µM in assay [8]. In addition, the TGI is more than 64.6 µM in assay [1]; more than 31.8 µM in assay [2]; 20.9 µM in assay [3]; 4.29 µM in assay [4]; 12.8 µM in assay [5]; more than 100 µM in assay [6]. Further, the figures for the TGI in assay [7] and in assay [8] were more than 35.1 µM and more than 88.1 µM, respectively.

For `CC(C)(C)C(=O)c1c(C(F)(F)F)n([O-])c2cc(Cl)c(Cl)cc2[n+]1=O`, the GI50 was 1.44 µM in assay [1]; 0.613 µM in assay [2]; 0.353 µM in assay [3]; 0.505 µM in assay [4]; 1.58 µM in assay [5]; 0.849 µM in assay [6]. Besides, the GI50 is 0.16 µM in assay [7] and 0.642 µM in assay [8]. For the same compound, the TGI came to 2.9 µM in assay [1]; 1.29 µM in assay [2]; 0.803 µM in assay [3]; 0.973 µM in assay [4]; 2.93 µM in assay [5]; 2.3 µM in assay [6]. The TGI in assay [7] came to 0.554 µM; in assay [8], 2.19 µM.

Take `CC(C)(O)CCc1cccc(C(=O)c2cnn(-c3ccc(F)cc3)c2N)c1`: the GI50 was more than 25 µM in assay [1]; 8.17 µM in assay [2]; more than 25 µM in assay [3]; more than 25 µM in assay [4]; more than 25 µM in assay [5]; more than 25 µM in assay [6]. Further, the GI50 in assay [7] and in assay [8] was more than 25 µM each time. Moreover, the TGI in assay [1], in assay [2], in assay [3], in assay [4], in assay [5] and in assay [6] was more than 25 µM throughout. Also, the TGI in assay [7] and in assay [8] was more than 25 µM each time.

Take `CC1=CC(C)(C)Nc2ccc(Cc3ccc4c(c3)C(C)=CC(C)(C)N4)cc21`: the GI50 is 15.7 µM in assay [1]; 3.77 µM in assay [2]; 10.1 µM in assay [3]; 9.78 µM in assay [4]; 8.69 µM in assay [5]; 4.54 µM in assay [6]. Further, the GI50 in assay [7] is 8.14 µM; in assay [8] it was 52.3 µM. Further, the TGI was 64.2 µM in assay [1]; 35.2 µM in assay [2]; 76.1 µM in assay [3]; more than 100 µM in assay [4]; 43.9 µM in assay [5]; more than 100 µM in assay [6]. Also, the values for the TGI in assay [7] and in assay [8] were 47.4 µM and more than 100 µM, respectively.

As for `Cc1nn(Cc2ccccc2)cc1C(=O)Nc1sc2c(c1C(N)=O)CCC(=O)C2`, the GI50 in assay [1] was 2 µM; in assay [2] it was 1.27 µM; in assay [3] it was 3.73 µM; in assay [4], 2.68 µM; in assay [5] it was 1.28 µM; in assay [6], 2.52 µM. In addition, the GI50 in assay [7] is 2.51 µM; in assay [8] it was 1.92 µM. Further, the TGI in assay [1] is 4.86 µM; in assay [2], 3.79 µM; in assay [3] it was more than 100 µM; in assay [4] it was 8.07 µM; in assay [5], 4.33 µM; in assay [6], 7.22 µM. Moreover, the TGI in assay [7] was found to be 9.71 µM; in assay [8], 4.3 µM.

Consider `C=CCC(N[C@H](CO)c1ccccc1)c1ccccn1` (some centres undefined), for which the GI50 in assay [1], in assay [2], in assay [3], in assay [4], in assay [5] and in assay [6] was more than 100 µM in each case. Further, the GI50 in assay [7] and in assay [8] was more than 100 µM throughout. Besides, the TGI in assay [1], in assay [2], in assay [3], in assay [4], in assay [5] and in assay [6] was more than 100 µM throughout. Besides, the TGI in assay [7] and in assay [8] was more than 100 µM each time.

For `O=C1C(Cl)=C(Nc2cc(Cl)ccc2O)C(=O)N1Cc1ccccc1`, the GI50 was 17.5 µM in assay [1]; 27.6 µM in assay [2]; 18 µM in assay [3]; 18.3 µM in assay [4]; 19.4 µM in assay [5]; 16.6 µM in assay [6]. Moreover, the GI50 in assay [7] was 21.7 µM; in assay [8], 18.8 µM. The TGI was 33.2 µM in assay [1]; more than 100 µM in assay [2]; 33.5 µM in assay [3]; 38.4 µM in assay [4]; 35.6 µM in assay [5]; 31.5 µM in assay [6]. Further, the TGI in assay [7] was determined as 49.6 µM; in assay [8], 35.4 µM.

For the compound `C[C@@H](CS[As](C)C)C(=O)N1CCC[C@H]1C(=O)O`, the GI50 was 0.226 µM in assay [1]; 0.606 µM in assay [2]; 0.19 µM in assay [3]; 1.79 µM in assay [4]; 0.167 µM in assay [5]; 0.359 µM in assay [6]. Besides, the GI50 is 0.255 µM in assay [7] and 0.444 µM in assay [8]. Moreover, the TGI is 1.35 µM in assay [1]; 5.75 µM in assay [2]; 1.68 µM in assay [3]; 5.32 µM in assay [4]; more than 100 µM in assay [5]; 2.33 µM in assay [6]. Further, the TGI worked out at 0.796 µM in assay [7] and 1.8 µM in assay [8].
